Measured values reported in patent US12673946B2, “Pyrimidin-4(3H)-one derivatives as TRPV4 antagonists” (RaQualia Pharma Inc., priority 2020, dated 2026).

Target: T1, human TRPV4 (Homo sapiens, UniProt Q9HBA0)
T1 construct: host or cells: tetracycline-inducible Flp-In T-REx 293 cells
Assay: Hypotonicity-induced Ca2+ influx (Fluo-4, FDSS)
Format: cell-based
Summary of the method: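 Flp-In T-REx 293 cells with tetracycline-induced human TRPV4, loaded with Fluo-4 for 60 min at 25 °C. Compound added 5 min before hypotonic mannitol/CaCl2 solution. Ca2+ signal recorded for 4.5 min on FDSS.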

[1] = Flp-In T-REx 293 cells expressing human TRPV4, examples listed under heading 'Human IC50<50 nM'
[2] = Flp-In T-REx 293 cells stably expressing human TRPV4, compounds listed by potency bin (<10 nM Tables 96-1/96-2, <3 nM Table 97)

T1 sequence (Q9HBA0 whole entry): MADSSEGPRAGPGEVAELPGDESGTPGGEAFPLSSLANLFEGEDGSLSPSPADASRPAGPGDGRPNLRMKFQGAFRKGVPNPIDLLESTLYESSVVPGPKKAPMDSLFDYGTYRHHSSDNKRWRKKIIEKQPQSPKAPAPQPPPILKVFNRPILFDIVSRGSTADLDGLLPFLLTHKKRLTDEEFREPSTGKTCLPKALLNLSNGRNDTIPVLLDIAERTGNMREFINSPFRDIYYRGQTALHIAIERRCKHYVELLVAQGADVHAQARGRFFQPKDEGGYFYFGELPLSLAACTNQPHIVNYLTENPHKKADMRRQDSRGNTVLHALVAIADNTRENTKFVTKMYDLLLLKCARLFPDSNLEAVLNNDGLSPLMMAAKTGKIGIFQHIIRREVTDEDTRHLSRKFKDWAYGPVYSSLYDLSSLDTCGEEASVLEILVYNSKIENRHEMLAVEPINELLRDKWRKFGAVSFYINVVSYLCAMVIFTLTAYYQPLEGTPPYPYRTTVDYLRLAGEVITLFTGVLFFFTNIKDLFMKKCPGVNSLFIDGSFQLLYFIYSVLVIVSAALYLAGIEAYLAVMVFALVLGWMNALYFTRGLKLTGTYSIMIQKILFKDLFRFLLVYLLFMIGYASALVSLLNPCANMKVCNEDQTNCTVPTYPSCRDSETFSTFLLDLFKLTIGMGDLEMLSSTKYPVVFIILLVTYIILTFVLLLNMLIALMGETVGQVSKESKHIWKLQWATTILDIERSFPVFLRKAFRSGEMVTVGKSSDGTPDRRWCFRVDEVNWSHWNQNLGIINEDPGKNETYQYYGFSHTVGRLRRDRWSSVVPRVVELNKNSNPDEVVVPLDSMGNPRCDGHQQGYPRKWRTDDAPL

SMILES | IC50 [1] [µM] | IC50 [2] [µM]
O=C(Cc1cccc(C(F)(F)F)c1F)N1CCCc2nc(C3(c4cccc(Cl)c4)CC3)[nH]c(=O)c2C1 [17-111] | < 0.05 | < 0.01
O=C([C@H](O)c1cccc(Cl)c1)N1CCCc2nc(C3(c4cccc(Br)c4)CC3)[nH]c(=O)c2C1 [17-87] | < 0.05 | < 0.01
O=C(Cc1cccc(C(F)(F)F)c1)N1CCCc2nc(C3(c4cccc(Cl)c4)CC3)[nH]c(=O)c2C1 [17-110] | < 0.05 | < 0.01
O=C([C@H](O)c1cccc(C(F)(F)F)c1)N1CCCc2nc(C3(c4cccs4)CC3)[nH]c(=O)c2C1 [18-9] | < 0.05 | < 0.01
O=C(C(O)c1cccc(-c2cccc(C(F)(F)F)c2)c1)N1CCCc2nc(C3(c4cccc(F)c4)CC3)[nH]c(=O)c2C1 (stereo not shown) [17-14] | < 0.05 | < 0.01
O=C(/C=C/c1cccc(C(F)(F)F)c1)N1CCCc2nc(C3(c4cccc(Cl)c4)CC3)[nH]c(=O)c2C1 [17-117] | < 0.05 | < 0.01
CC(C)c1csc(C2(c3nc4c(c(=O)[nH]3)CN(C(=O)C(O)c3cccc(-c5cccc(OC(F)(F)F)c5)c3)CCC4)CC2)c1 (stereo not shown) [18-20] | < 0.05 | < 0.01
O=C([C@H](O)c1cccc(Cl)c1)N1CCc2nc(C3(c4cncc(-c5ccccc5)c4)CC3)[nH]c(=O)c2C1 [16-1] | < 0.05 | < 0.003
O=C(C(O)c1cccc(-c2ccc(Cl)cc2)c1)N1CCCc2nc(C3(c4cccc(Cl)c4)CC3)[nH]c(=O)c2C1 (stereo not shown) [17-17] | < 0.05 | < 0.01
O=C(C(O)c1cccc(C(F)(F)F)c1F)N1CCCc2nc(C3(c4cccc(Cl)c4)CC3)[nH]c(=O)c2C1 (stereo not shown) [17-4] | < 0.05 | < 0.003
CC(C)c1cccc(C2(c3nc4c(c(=O)[nH]3)CN(C(=O)[C@H](O)c3cccc(Cl)c3)CC4)CC2)c1 [14-13] | < 0.05 | < 0.01
O=C([C@H](O)c1cccc(Cl)c1)N1CCc2nc(C3(c4cccc(Br)c4)CC3)[nH]c(=O)c2C1 [14-26] | < 0.05 | –
O=C([C@H](O)c1cccc(C(F)(F)F)c1)N1CCCc2nc(C3(c4cccc(F)c4)CC3)[nH]c(=O)c2C1 [17-36] | < 0.05 | < 0.01
CC(C)(C)c1cccc(C(O)C(=O)N2CCc3nc(C4(c5cccs5)CC4)[nH]c(=O)c3C2)c1 (stereo not shown) [15-17] | < 0.05 | –
O=C(C(O)c1cccc(S(F)(F)(F)(F)F)c1)N1CCCc2nc(C3(c4cccc(F)c4)CC3)[nH]c(=O)c2C1 (stereo not shown) [17-32] | < 0.05 | < 0.01
O=C(COc1cccc(-c2ccccc2)c1)N1CCCc2nc(C3(c4cccc(Cl)c4)CC3)[nH]c(=O)c2C1 [17-105] | < 0.05 | –
O=C(Cc1cccc(-c2ccc(OC(F)(F)F)cc2)c1)N1CCc2nc(C3(c4cccc(Cl)c4)CC3)[nH]c(=O)c2C1 [14-118] | < 0.05 | –

Second part, the compound after the results:

IC50 [1] [µM] | IC50 [2] [µM] | SMILES
< 0.05 | < 0.003 | O=C([C@H](O)c1cccc(Cl)c1)N1CCc2nc(C3(c4cncc(C5CCCC5)c4)CC3)[nH]c(=O)c2C1 [25-1]
< 0.05 | < 0.01 | O=C(C(O)c1cccc(-c2cc(C(F)(F)F)cc(C(F)(F)F)c2)c1)N1CCc2nc(C3(c4ccccc4)CC3)[nH]c(=O)c2C1 (stereo not shown) [44-8]
< 0.05 | < 0.01 | CC(C)c1cccc(C2(c3nc4c(c(=O)[nH]3)CN(C(=O)C(O)c3cccc(-c5ccnc(C(F)(F)F)c5)c3)CCC4)CC2)c1 (stereo not shown) [51-1]
< 0.05 | < 0.01 | CC(C)c1cncc(C2(c3nc4c(c(=O)[nH]3)CN(C(=O)C(O)c3cccc(-c5cccc(OC(F)(F)F)c5)c3)CCC4)CC2)c1 (stereo not shown) [55-2]
< 0.05 | < 0.003 | CC(C)c1cncc(C2(c3nc4c(c(=O)[nH]3)CN(C(=O)C(F)(F)c3cccc(Cl)c3)CCC4)CC2)c1 [22-3]
< 0.05 | – | O=C(N1CCc2nc(C3(c4ccccc4)CC3)[nH]c(=O)c2C1)C(F)(F)c1cccc(C(F)(F)F)c1 [20-9]
< 0.05 | < 0.003 | N#Cc1cc(-c2cccc(C3(c4nc5c(c(=O)[nH]4)CN(C(=O)[C@H](O)c4cccc(C(F)(F)F)c4)CCC5)CC3)c2)ccc1F [42-66]
< 0.05 | < 0.01 | O=C(C(O)c1cccc(-c2cc(C(F)(F)F)ccc2Cl)c1)N1CCc2nc(C3(c4ccccc4)CC3)[nH]c(=O)c2C1 (stereo not shown) [44-13]
< 0.05 | < 0.01 | O=C(Cc1cccc(-c2cc(F)cc(Cl)c2)c1)N1CCCc2nc(C3(c4cccc(Cl)c4)CC3)[nH]c(=O)c2C1 [57-9]
< 0.05 | < 0.01 | O=C(C(O)c1cccc(-c2cccc(C(F)(F)F)c2)n1)N1CCc2nc(C3(c4ccccc4)CC3)[nH]c(=O)c2C1 (stereo not shown) [48-1]
< 0.05 | < 0.01 | CC(C)c1cccc(-c2cccc([C@@H](O)C(=O)N3CCCc4nc(C5(c6cccs6)CC5)[nH]c(=O)c4C3)c2)c1 [53-3]
< 0.05 | < 0.01 | CC(C)c1cccc(C2(c3nc4c(c(=O)[nH]3)CN(C(=O)[C@H](O)c3cccc(-c5cccc(OC(F)(F)F)c5)c3)CCC4)CC2)c1 [51-3]
< 0.05 | < 0.003 | O=C([C@H](O)c1cccc(-c2cc(C(F)(F)F)ccc2Cl)c1)N1CCCc2nc(C3(c4ccccc4)CC3)[nH]c(=O)c2C1 [49-52]
< 0.05 | < 0.01 | N#Cc1ccccc1-c1cccc(C2(c3nc4c(c(=O)[nH]3)CN(C(=O)[C@H](O)c3cccc(C(F)(F)F)c3)CCC4)CC2)c1 [42-63]
< 0.05 | < 0.01 | CC(C)c1csc(C2(c3nc4c(c(=O)[nH]3)CN(C(=O)C(F)(F)c3cccc(Cl)c3F)CCC4)CC2)c1 [21-6]
< 0.05 | < 0.01 | O=C([C@H](O)c1cccc(-c2cccc(OCc3ccccc3)c2)c1)N1CCc2nc(C3(c4ccccc4)CC3)[nH]c(=O)c2C1 [44-93]
< 0.05 | < 0.01 | O=C([C@H](O)c1cccc(C(F)(F)F)c1F)N1CCCc2nc(C3(c4cncc(-c5ccccc5)c4)CC3)[nH]c(=O)c2C1 [19-3]
< 0.05 | < 0.01 | CC(C)c1csc(C2(c3nc4c(c(=O)[nH]3)CN(C(=O)[C@H](O)c3cccc(-c5cccc(Cl)c5)c3)CCC4)CC2)c1 [54-3]
< 0.05 | < 0.003 | O=C([C@H](O)c1cccc(-c2cccc(F)c2)c1)N1CCCc2nc(C3(c4cccc(Cl)c4)CC3)[nH]c(=O)c2C1 [50-6]
< 0.05 | < 0.01 | O=C([C@H](O)c1cccc(C(F)(F)F)c1)N1CCCc2nc(C3(c4cc(C(=O)N(Cc5ccccc5)C5CCCCC5)cs4)CC3)[nH]c(=O)c2C1 [59-16]

IC50 [1] [µM] | IC50 [2] [µM] | SMILES
< 0.05 | < 0.01 | CC(C)c1cncc(C2(c3nc4c(c(=O)[nH]3)CN(C(=O)C(O)c3cccc(-c5cccc(C(F)(F)F)c5)c3)CCC4)CC2)c1 (stereo not shown) [55-3]
< 0.05 | < 0.01 | CC(C)(C)c1cccc(-c2cccc([C@@H](O)C(=O)N3CCCc4nc(C5(c6cc(-c7ccccc7)cs6)CC5)[nH]c(=O)c4C3)c2)c1 [54-12]
< 0.05 | < 0.01 | O=C(c1csc(C2(c3nc4c(c(=O)[nH]3)CN(C(=O)[C@H](O)c3cccc(C(F)(F)F)c3)CCC4)CC2)c1)N(Cc1ccccc1)Cc1ccccc1 [59-12]
< 0.05 | < 0.01 | O=C([C@H](O)c1cccc(C(F)(F)F)c1)N1CCCc2nc(C3(c4cccc(C5=CCN(S(=O)(=O)Cc6ccccc6)CC5)c4)CC3)[nH]c(=O)c2C1 [42-78]
< 0.05 | – | O=C(C(O)c1cccc(-c2cccc(F)c2)c1F)N1CCc2nc(C3(c4ccccc4)CC3)[nH]c(=O)c2C1 (stereo not shown) [44-33]
< 0.05 | < 0.01 | O=C([C@H](O)c1cccc(C(F)(F)F)c1)N1CCCc2nc(C3(c4cccc(-c5ccc(F)c(F)c5)c4)CC3)[nH]c(=O)c2C1 [42-62]
< 0.05 | – | O=C(C(O)c1cccc(-c2cccc(Cl)c2)c1)N1CCc2nc(C3(c4ccccc4)CC3)[nH]c(=O)c2C1 (stereo not shown) [44-21]
< 0.05 | < 0.01 | O=C(C(O)c1cncc(-c2cccc(C(F)(F)F)c2)c1)N1CCc2nc(C3(c4ccccc4)CC3)[nH]c(=O)c2C1 (stereo not shown) [48-4]
< 0.05 | – | O=C([C@H](O)c1cccc(Cl)c1)N1CCCc2nc(C3(c4cc(-c5cccnc5)cs4)CC3)[nH]c(=O)c2C1 [39-3]
< 0.05 | – | Cc1cc(F)cc(-c2cccc(C(O)C(=O)N3CCc4nc(C5(c6ccccc6)CC5)[nH]c(=O)c4C3)c2)c1 (stereo not shown) [44-35]
< 0.05 | < 0.003 | O=C([C@H](O)c1cccc(Cl)c1)N1CCCc2nc(C3(c4cccc(-c5ccccc5)c4)CC3)[nH]c(=O)c2C1 [40-1]
< 0.05 | < 0.01 | O=C(C(O)c1cccc(-c2ccc(Cl)c(C(F)(F)F)c2)c1)N1CCc2nc(C3(c4ccccc4)CC3)[nH]c(=O)c2C1 (stereo not shown) [44-5]
< 0.05 | < 0.01 | O=C(Cc1cccc(-c2cccc(OC(F)(F)F)c2)c1)N1CCCc2nc(C3(c4cccc(Cl)c4)CC3)[nH]c(=O)c2C1 [57-8]
< 0.05 | < 0.003 | O=C([C@H](O)c1cccc(-c2cccc(C(F)(F)F)c2)c1)N1CCCc2nc(C3(c4ccccc4)CC3)[nH]c(=O)c2C1 [49-13]
< 0.05 | < 0.003 | CC(C)(C)c1cccc(-c2cccc(C(O)C(=O)N3CCCc4nc(C5(c6cncc(-c7ccccc7)c6)CC5)[nH]c(=O)c4C3)c2)c1 (stereo not shown) [56-3]
< 0.05 | < 0.01 | O=C([C@H](O)c1cccc(-c2csc3ccccc23)c1)N1CCCc2nc(C3(c4cccc(C5CCCCC5)c4)CC3)[nH]c(=O)c2C1 [52-6]
< 0.05 | < 0.01 | O=C(C(O)c1cccc(-c2cccc(C3CC3)c2)n1)N1CCc2nc(C3(c4ccccc4)CC3)[nH]c(=O)c2C1 (stereo not shown) [48-6]
< 0.05 | < 0.01 | O=C([C@H](O)c1cccc(Cl)c1)N1CCCc2nc(C3(c4cccc(-c5ccc(Cl)cc5)c4)CC3)[nH]c(=O)c2C1 [40-7]
< 0.05 | < 0.01 | O=C(Cc1cccc(-c2cccc(C(F)(F)F)c2)c1)N1CCCc2nc(C3(c4cccc(C5=CCCCC5)c4)CC3)[nH]c(=O)c2C1 [42-70]
